Reference: patent publication US8198252B2, “SIRNA inhibition of PI3K P85, P110, and AKT2 and methods of use” (Board of Regents, The University of Texas System, priority 2006, dated 2012)

How the values were obtained:
[1] = test system: HT29-GFP cells; experiment: Liver metastasis establishment by cells transfected with siRNA in vitro; format: in vivo, mice; settings: three weeks
Procedure: (§1) In Vivo Experiments. For in vivo studies, 4- to 6-week-old male nude^nu/nu mice were obtained from Harlan Sprague Dawley (Indianapolis, Ind.) and housed in clean, pathogen-free rooms in an environment with controlled temperature (22° C.), humidity, and a 12 hours light/dark cycle. The mice were fed standard chow (Formula Chow 5008; Purina Mills, St. Louis, Mo.) and tap water ad libitum and allowed to acclimate for 1 week. All studies were approved by the Institutional Animal Care and Use Committee of UTMB. Tumor cells were injected intrasplenically by methods previously described (Bruns et al., Neoplasia, 1:50-62 (1999)). Briefly, mice were anesthetized with halothane, a small left abdominal flank incision was created, and the spleen was exteriorized. Transfectants were harvested using only trypsin and resuspended as a single-cell suspension in Hanks Balanced Salt Solution, free of Mg^2+ and Ca^2+. Tumor cells (5×10^6 cells/400 μL) were injected into the spleen with a 27-gauge needle. The spleen was returned to the abdomen, and the wound was closed in one layer with wound clips. The mice were observed over the indicated time period using the Illumatool TLS (Lightools Research, Encinitas, Calif.). Animals were randomized into 3 experimental groups (5 animals per group) to receive p85α, p110α, or NTC siSTABLE siRNA (20 μg/mice, qod) by hydrodynamic tail vein injection (Watanabe et al., Gastroenterology, 128:1391-1404 (2005)) 24 hours after operation; mice were killed 35 days later. Experiments were performed in duplicate.
(§2) Methods of cells transfection and liver metastasis establishment are described in Example 1.
(§3) Akt2 is essential for colorectal cancer metastasis establishment. To determine whether Akt2 plays a causal role in colorectal cancer metastasis, we tested whether inhibition of Akt2 expression in the highly metastatic colorectal cancer cells would affect their metastatic ability. HT29^GFP or KM20^GFP cells were transfected with NTC (purchased from Dharmacon Inc.) or Akt2 siRNA (GUACUUCGAUGAUGAAUUU, SEQ ID NO:20) in vitro and inoculated intrasplenically (5×10^6) 60 hours later. To avoid intrasplenic tumor growth, the spleen was removed after 24 h. Animals were monitored individually for metastatic tumor growth using the Illumatool TLS. Three weeks after implantation the mice were sacrificed and the liver was examined for metastatic lesions by inspection of GFP fluorescence. […] In addition, the sizes of individual metastatic nodules present in the liver of both groups of mice were very similar. […] We also suspect that incomplete suppression of Akt2 by siRNA in a small subset of cells account for the residual ability of such cells to form liver metastasis.

[2] = test system: KM20-GFP cells; experiment: as above; format: in vivo, mice; settings: three weeks
Procedure: as §1, §2, §3

[3] = test system: Akt2; experiment: Western blot of Akt2 in the cells used for intrasplenic inoculation; format: cell-based, human; settings: before (0 h) or after (2 h) surgical procedure
Procedure: Protein Preparation and Western Immunoblot. Western immunoblot analyses were performed as described previously (Wang et al., Clin Cancer Res. 8:1940-1947 (2002)). Cells were lysed with TNN buffer at 4° C. for 30 minutes. Lysates were clarified by centrifugation (10,000 g for 30 minutes at 4° C.) and protein concentrations determined using the method of Bradford (Bradford, Anal Biochem., 72:248-254 (1976)). Briefly, total protein (60 μg) was resolved on a 10% polyacrylamide gel and transferred to Immobilon-P […] membranes. Filters were incubated overnight at 4° C. in blotting solution (Tris-buffered saline containing 5% nonfat dried milk and 0.1% Tween 20), followed by a 1-hour incubation with primary antibodies. Filters were washed 3 times in a blocking solution and incubated with horseradish peroxidase-conjugated secondary antibodies for 1 hour. After 3 additional washes, the immune complexes were visualized by ECL detection.
Akt2 is essential for colorectal cancer metastasis establishment. […] Animals were monitored individually for metastatic tumor growth using the Illumatool TLS. Three weeks after implantation the mice were sacrificed and the liver was examined for metastatic lesions by inspection of GFP fluorescence. […]

[4] = 5×10^6 intrasplenically 60 hours later, compared with NTC siRNA

GUACUUCGAUGAUGAAUUU [Akt2 siRNA] was tested, and the “macroscopically visible metastases in the liver” value [1, 4] was “formed very few metastases”, the “number of micrometastatic lesions in the liver (histological analysis)” value [1] was “drastically reduced” and the “sizes of individual metastatic nodules in the liver, compared with NTC group” value [1] was “very similar”. The “macroscopically visible metastases in the liver” value [2, 4] was “formed very few metastases”, the “number of micrometastatic lesions in the liver (histological analysis)” value [2] was “drastically reduced” and the “sizes of individual metastatic nodules in the liver, compared with NTC group” value [2] was “very similar”. The Akt2 expression ([3]; HT29-GFP cells used for intrasplenic inoculation) was “confirmed Akt2 downregulation” and the Akt2 expression ([3]; KM20-GFP cells used for intrasplenic inoculation) was “confirmed Akt2 downregulation”.
